# Assay results from the supplement of paper PMC10307832.
# Tests used:
# Assay in all cases: relative viability (nuclei count vs DMSO), 5 days (fraction); higher = more cells survive
# AZD8055 + Dasatinib = compound: COc1ccc(-c2ccc3c(N4CCOC[C@@H]4C)nc(N4CCOC[C@@H]4C)nc3n2)cc1CO [AZD8055] + Cc1nc(Nc2ncc(C(=O)Nc3c(C)cccc3Cl)s2)cc(N2CCN(CCO)CC2)n1 [Dasatinib] (partner 0.075 µM)
# Method in brief: (§1)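 Relative viability is defined as nuclei in treated wells over nuclei in vehicle wells. Duplicate plates were run and medians reported. Lung cancer cell lines in 1536-well plates were dosed by pin tool one day after seeding, with one drug or with a fixed anchor-drug dose plus five library-drug doses (not always all listed) in √10 steps, and nuclei were counted after 5 days.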
# AZD8055 + Luminespib = compound: COc1ccc(-c2ccc3c(N4CCOC[C@@H]4C)nc(N4CCOC[C@@H]4C)nc3n2)cc1CO [AZD8055] + CCNC(=O)c1noc(-c2cc(C(C)C)c(O)cc2O)c1-c1ccc(CN2CCOCC2)cc1 [Luminespib] (partner 0.01 µM)
# Method in brief: as §1
# AZD8055 + Alpelisib = compound: COc1ccc(-c2ccc3c(N4CCOC[C@@H]4C)nc(N4CCOC[C@@H]4C)nc3n2)cc1CO [AZD8055] + Cc1nc(NC(=O)N2CCC[C@H]2C(N)=O)sc1-c1ccnc(C(C)(C)C(F)(F)F)c1 [Alpelisib] (partner 2 µM)
# Method in brief: as §1
# AZD8055 + Tozasertib = compound: COc1ccc(-c2ccc3c(N4CCOC[C@@H]4C)nc(N4CCOC[C@@H]4C)nc3n2)cc1CO [AZD8055] + Cc1cc(Nc2cc(N3CCN(C)CC3)nc(Sc3ccc(NC(=O)C4CC4)cc3)n2)n[nH]1 [Tozasertib] (partner 0.1 µM)
# Method in brief: as §1
Cell Line,relative viability (AZD8055 + Dasatinib; first compound 0.01 µM),relative viability (AZD8055 + Dasatinib; first compound 0.03162 µM),relative viability (AZD8055 + Dasatinib; first compound 0.1 µM),relative viability (AZD8055 + Dasatinib; first compound 0.3162 µM),relative viability (AZD8055 + Dasatinib; first compound 1 µM),relative viability (AZD8055 + Luminespib; first compound 0.01 µM),relative viability (AZD8055 + Luminespib; first compound 0.03162 µM),relative viability (AZD8055 + Luminespib; first compound 0.1 µM),relative viability (AZD8055 + Luminespib; first compound 0.3162 µM),relative viability (AZD8055 + Luminespib; first compound 1 µM),relative viability (AZD8055 + Alpelisib; first compound 0.01 µM),relative viability (AZD8055 + Alpelisib; first compound 0.03162 µM),relative viability (AZD8055 + Alpelisib; first compound 0.1 µM),relative viability (AZD8055 + Alpelisib; first compound 0.3162 µM),relative viability (AZD8055 + Alpelisib; first compound 1 µM),relative viability (AZD8055 + Tozasertib; first compound 0.01 µM),relative viability (AZD8055 + Tozasertib; first compound 0.03162 µM),relative viability (AZD8055 + Tozasertib; first compound 0.1 µM),relative viability (AZD8055 + Tozasertib; first compound 0.3162 µM),relative viability (AZD8055 + Tozasertib; first compound 1 µM)
LK-2,0.215,0.188,0.175,0.185,0.185,0.154,0.186,0.16,0.173,0.144,1.03,0.658,0.447,0.331,0.265,0.147,0.133,0.182,0.15,0.154
LOU-NH91,0.545,0.6,0.415,0.431,0.406,0.349,0.348,0.325,0.282,0.317,0.705,0.669,0.556,0.537,0.511,0.735,0.716,0.693,0.672,0.506
LU99A,0.432,0.324,0.314,0.173,0.268,0.234,0.189,0.185,0.191,0.188,0.32,0.261,0.158,0.189,0.228,0.289,0.268,0.2,0.198,0.21
LXF-289,0.191,0.222,0.192,0.118,0.109,0.715,0.599,0.623,0.309,0.32,1.02,0.923,0.742,0.567,0.515,0.234,0.295,0.212,0.201,0.105
NCI-H23,0.874,0.732,0.572,0.276,0.27,0.193,0.216,0.208,0.229,0.297,0.668,0.604,0.406,0.268,0.269,0.486,0.311,0.248,0.24,0.235
NCI-H322M,0.259,0.265,0.251,0.246,0.249,0.797,0.597,0.357,0.348,0.289,0.696,0.0834,0.673,0.433,0.402,0.458,0.45,0.408,0.347,0.326
NCI-H358,0.169,0.173,0.0957,0.0735,0.0998,0.33,0.336,0.392,0.123,0.0919,0.714,0.786,0.75,0.295,0.216,0.0893,0.121,0.102,0.0607,0.0813
NCI-H441,0.538,0.608,0.474,0.281,0.245,0.347,0.291,0.283,0.22,0.221,0.678,0.42,0.444,0.331,0.315,0.591,0.767,0.499,0.309,0.295
NCI-H460,0.554,0.365,0.213,0.0862,0.0669,0.03,0.029,0.0182,0.0223,0.0329,0.314,0.195,0.148,0.0795,0.0574,0.648,0.675,0.529,0.208,0.124
NCI-H520,0.142,0.13,0.15,0.14,0.171,0.239,0.228,0.171,0.183,0.16,0.912,0.659,0.4,0.187,0.18,0.381,0.305,0.213,0.251,0.192
NCI-H596,0.594,0.516,0.468,0.286,0.301,0.961,0.813,0.44,0.343,0.346,0.479,0.385,0.348,0.348,0.324,0.698,0.698,0.434,0.308,0.329
NCI-H647,0.179,0.136,0.132,0.0579,0.144,0.15,0.126,0.125,0.0957,0.121,0.987,0.623,0.332,0.208,0.167,0.319,0.27,0.28,0.143,0.088
NCI-H650,0.469,0.393,0.36,0.292,0.231,0.998,0.768,0.691,0.436,0.295,0.968,0.834,0.695,0.385,0.385,0.817,0.711,0.601,0.381,0.333
NCI-H661,0.845,0.867,0.633,0.368,0.305,0.971,0.906,0.886,0.424,0.367,0.801,0.411,0.399,0.397,0.275,0.329,0.376,0.376,0.356,0.359
NCI-H727,0.444,0.464,0.41,0.28,0.312,0.375,0.34,0.345,0.345,0.376,0.564,0.435,0.356,0.255,0.269,0.849,0.77,0.499,0.414,0.487
NCI-H838,0.269,0.264,0.262,0.231,0.217,0.317,0.223,0.234,0.156,0.196,0.981,0.781,0.412,0.276,0.288,0.293,0.27,0.248,0.184,0.204
